IC50 data for 24 compounds are collected here from US20230210853A1 (Halia Therapeutics, Inc., priority 2020, published 2023).

T1 sequence (Q8TDX7 whole entry): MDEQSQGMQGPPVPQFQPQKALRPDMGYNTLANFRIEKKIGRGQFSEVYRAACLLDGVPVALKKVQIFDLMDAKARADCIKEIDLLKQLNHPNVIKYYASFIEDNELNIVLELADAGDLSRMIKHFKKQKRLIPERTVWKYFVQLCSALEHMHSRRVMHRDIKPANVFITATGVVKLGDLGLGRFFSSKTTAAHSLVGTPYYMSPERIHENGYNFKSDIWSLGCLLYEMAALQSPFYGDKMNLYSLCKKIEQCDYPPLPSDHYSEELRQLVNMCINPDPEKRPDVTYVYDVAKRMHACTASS

The first assay has as its target T1, full-length recombinant human NEK7 (Homo sapiens, UniProt Q8TDX7).
T1 construct: full-length recombinant human NEK7; GST (N); purchased SignalChem N09-10G; host or cells: Sf9 insect cells (baculovirus)
The assay is described as follows: NEK7 enzymatic assay ([33P]-ATP, casein substrate). In kind it is biochemical. Particulars: Table 2a; recombinant human NEK7, casein substrate. As for the experimental part: In some embodiments, the IC50 of the compounds of Structure (I), (Ia), (Ib), (Ic), (Id), (Ie), or (If) to inhibit NEK7 was determined by the concentration of the compound required to inhibit 50% of the activity of the NEK kinase.
(§1) Casein substrate (from bovine milk, hydrolyzed and partially dephosphorylated mixture of α, β and κ caseins, obtained from Sigma Aldrich, catalogue #C4765, diluted in distilled water to a final concentration of 1 mg/mL) and full-length recombinant human NEK7 (expressed by baculovirus in Sf9 insect cells using a N-terminal GST tag, obtained from SignalChem, catalogue #N09-10G, 0.1 μg/μL) were mixed in assay buffer (20 mM Hepes pH 7.5, 10 mM MgCl2, 1 mM EGTA, 0.02% Brij35, 0.02 mg/ml BSA, 0.1 mM Na3 VO4, 2 mM DTT, 1% DMSO). Compounds of interest (serial 3-fold dilution in DMSO from 10 μM to 0.5 nM) or vehicle (1% DMSO) were dispensed into the kinase reaction mixture by Acoustic technology (Echo550, nanoliter range). After incubation at room temperature for 20 minutes, the kinase reaction was initiated by addition of [^33P]-ATP (specific activity 10 μCi/μl) and the mixture was incubated at room temperature for 2 hours. The reaction was then stopped by spotting the reaction mixture on strips of phosphocellulose P81 paper. Following washing, the radioactivity of the P81 paper was measured and kinase activity data were expressed as the percent remaining kinase activity in test samples compared to vehicle reactions. IC50 values and curve fits were obtained using Prism (GraphPad Software).
as §1, with “μg/L)” for “μg/μL)”, “Na3VO4,” for “Na3 VO4,”, “(Echo550;” for “(Echo550,”
On to `CC(C)(c1cc(NC(=O)Nc2ccc(-c3nn(C4CC4)c4ncnc(N)c34)cc2F)on1)C(F)(F)F` [Ia-22, 1-(4-(4-amino-1-cyclopropyl-1H-pyrazolo[3,4-d]pyrimidin-3-yl)-2-fluorophenyl)-3-(3-(1,1,1-trifluoro-2-methylpropan-2-yl)isoxazol-5-yl)urea], for which the IC50 (in general, the concentration that gives 50% inhibition) fell in the range of 151 to 300 nM.
On the same count and under the same terms, the result for `CC(C)(C)c1cc(NC(=O)Nc2ccc(-c3nn(C4COC4)c4ncnc(N)c34)cc2F)no1` [Ia-23, 1-(4-(4-amino-1-(oxetan-3-yl)-1H-pyrazolo[3,4-d]pyrimidin-3-yl)-2-fluorophenyl)-3-(5-(tert-butyl)isoxazol-3-yl)urea] reads below 150 nM; that for `CC(C)(C)c1cc(NC(=O)Nc2ccc(-c3nn(C4CCOC4)c4ncnc(N)c34)cc2F)on1` (stereo not drawn) [Ia-24, 1-(4-(4-amino-1-(tetrahydrofuran-3-yl)-1H-pyrazolo[3,4-d]pyrimidin-3-yl)-2-fluorophenyl)-3-(3-(tert-butyl)isoxazol-5-yl)urea], below 150 nM.
Same read-out and setting: under `C=CCn1nc(-c2ccc(NC(=O)Nc3cc(C(C)(C)C)on3)c(F)c2)c2c(N)ncnc21` [Ia-26] stands 151 to 300 nM; under `CC(C)(F)c1cc(NC(=O)Nc2ccc(-c3nn(C4CC4)c4ncnc(N)c34)cc2F)on1` [Ia-27, 1-(4-(4-amino-1-cyclopropyl-1H-pyrazolo[3,4-d]pyrimidin-3-yl)-2-fluorophenyl)-3-(3-(2-fluoropropan-2-yl)isoxazol-5-yl)urea], 501 to 1500 nM.
Turning to `Cn1nc(-c2ccc(NC(=O)Nc3cc(C(C)(C)C)no3)c(F)c2)c2c(N)ncnc21` [Ia-29, 1-(4-(4-amino-1-methyl-1H-pyrazolo[3,4-d]pyrimidin-3-yl)-2-fluorophenyl)-3-(3-(tert-butyl)isoxazol-5-yl)urea], the IC50 was below 150 nM.
Still for that read-out and setting: under `CC(C)(C)c1cc(NC(=O)Nc2ccc(-c3nn(C4CC4)c4ccnc(N)c34)cc2)on1` [Ia-31, 1-(4-(4-amino-1-cyclopropyl-1H-pyrazolo[4,3-c]pyridin-3-yl)phenyl)-3-(3-(tert-butyl)isoxazol-5-yl)urea] stands 501 to 1500 nM; under `CC(C)(C)c1cc(NC(=O)Nc2ccc(-c3nn(C4CC4)c4ncnc(N)c34)cc2F)sn1` [Ia-35, 1-(4-(4-amino-1-cyclopropyl-1H-pyrazolo[3,4-d]pyrimidin-3-yl)-2-fluorophenyl)-3-(3-(tert-butyl)isothiazol-5-yl)urea], 501 to 1500 nM.
The same measure, in the same setting: the result for `CC(C)(C)c1nnc(NC(=O)Nc2ccc(-c3nn(C4CC4)c4ncnc(N)c34)cc2F)o1` [Ia-36, 1-(4-(4-amino-1-cyclopropyl-1H-pyrazolo[3,4-d]pyrimidin-3-yl)-2-fluorophenyl)-3-(5-(tert-butyl)-1,3,4-oxadiazol-2-yl)urea] reads 501 to 1500 nM.
Still for that read-out and setting: under `Nc1ncnc2c1c(-c1ccc(NC(=O)Nc3cc(C(F)(F)F)no3)c(F)c1)nn2C1CC1` [Ia-39, 1-(4-(4-amino-1-cyclopropyl-1H-pyrazolo[3,4-d]pyrimidin-3-yl)-2-fluorophenyl)-3-(3-(trifluoromethyl)isoxazol-5-yl)urea] stands 151 to 300 nM; under `CCC(CC)c1cc(NC(=O)Nc2ccc(-c3nn(C4CC4)c4ncnc(N)c34)cc2F)on1` [Ia-40, 1-(4-(4-amino-1-cyclopropyl-1H-pyrazolo[3,4-d]pyrimidin-3-yl)-2-fluorophenyl)-3-(3-(pentan-3-yl)isoxazol-5-yl)urea], 151 to 300 nM.
Take `CC(C)c1cc(NC(=O)Nc2ccc(-c3nn(C4CC4)c4ncnc(N)c34)cc2F)on1` [Ia-41, 1-(4-(4-amino-1-cyclopropyl-1H-pyrazolo[3,4-d]pyrimidin-3-yl)-2-fluorophenyl)-3-(3-isopropylisoxazo1-5-yl)urea]: the IC50 was 301 to 500 nM.
The same measure, in the same setting: the result for `CCc1cc(NC(=O)Nc2ccc(-c3nn(C4CC4)c4ncnc(N)c34)cc2F)on1` [Ia-42, 1-(4-(4-amino-1-cyclopropyl-1H-pyrazolo[3,4-d]pyrimidin-3-yl)-2-fluorophenyl)-3-(3-ethylisoxazol-5-yl)urea] reads below 150 nM; that for `CCC(C)c1cc(NC(=O)Nc2ccc(-c3nn(C4CC4)c4ncnc(N)c34)cc2F)on1` (stereo not drawn) [Ia-43, 1-(4-(4-amino-1-cyclopropyl-1H-pyrazolo[3,4-d]pyrimidin-3-yl)-2-fluorophenyl)-3-(3-(sec-butyl)isoxazol-5-yl)urea], 151 to 300 nM; that for `CC1(c2cc(NC(=O)Nc3ccc(-c4nn(C5CC5)c5ncnc(N)c45)cc3F)on2)CCC1` [Ia-44, 1-(4-(4-amino-1-cyclopropyl-1H-pyrazolo[3,4-d]pyrimidin-3-yl)-2-fluorophenyl)-3-(3-(1-methylcyclobutyl)isoxazol-5-yl)urea], 151 to 300 nM.
Take `Cc1cc(-c2nn(C3CC3)c3ncnc(N)c23)ccc1NC(=O)Nc1cc(C2(C(F)(F)F)CC2)no1` [Ia-48, 1-(4-(4-amino-1-cyclopropyl-1H-pyrazolo[3,4-d]pyrimidin-3-yl)-2-methylphenyl)-3-(3-(1-(trifluoromethyl)cyclopropyl)isoxazol-5-yl)urea]: the IC50 was in the range of 301 to 500 nM.
For `Nc1ncnc2c1c(-c1ccc(NC(=O)Nc3cc(C4(C(F)(F)F)CC4)no3)nc1)nn2C1COC1` [Ia-61], the half-maximal inhibitory concentration (IC50) fell in the range of 151 to 300 nM.

Staying with this assay, now noted: Table 2b; recombinant human NEK7, casein substrate.
With `CC(C)(C)c1cc(NC(=O)Nc2ccc(Oc3ccnc4[nH]ccc34)cc2F)n(-c2ccccc2)n1` [Ib-1, 1-(4-((1H-pyrrolo[2,3-b]pyridin-4-yl)oxy)-2-fluorophenyl)-3-(3-(tert-butyl)-1-phenyl-1H-pyrazol-5-yl)urea], the IC50 is above 1500 nM.
`CC(C)(C)c1cc(NC(=O)Nc2ccc(Oc3ccnc4[nH]ccc34)c(C(F)(F)F)c2)n(-c2ccccc2)n1` [Ib-2, 1-(4-((1H-pyrrolo[2,3-]pyridin-4-yl)oxy)-3-(TRIFLUOROMETHYL)phenyl)-3-(3-(tert-butyl)-1-phenyl-1H-pyrazol-5-yl)urea]: the IC50 was above 1500 nM.
With `CC(C)(C)c1cc(NC(=O)Nc2ccc(Oc3ncnc4[nH]ccc34)cc2F)n(-c2ccccc2)n1` [Ib-3, 1-(4-((7H-pyrrolo[2,3-d]pyrimidin-4-yl)oxy)-2-fluorophenyl)-3-(3-(tert-butyl)-1-phenyl-1H-pyrazol-5-yl)urea], the IC50 is above 1500 nM.
Regarding `CC(C)(C)c1cc(NC(=O)Nc2ccc(Oc3ccnc4[nH]cc(Cl)c34)cc2F)n(-c2ccccc2)n1` [Ib-6, 1-(3-(tert-butyl)-1-phenyl-1H-pyrazol-5-yl)-3-(4-((3-chloro-1H-pyrrolo[2,3-b]pyridin-4-yl)oxy)-2-fluorophenyl)urea], the 50% inhibitory concentration (IC50) was 501 to 1500 nM.
As to `Cn1nc(C(C)(C)C)cc1NC(=O)Nc1ccc(Oc2ccnc3[nH]cc(Cl)c23)cc1F` [Ib-7, 1-(3-(tert-butyl)-1-methyl-1H-pyrazol-5-yl)-3-(4-((3-chloro-1H-pyrrolo[2,3-b]pyridin-4-yl)oxy)-2-fluorophenyl)urea], the IC50 was in the range of 501 to 1500 nM.
On the same count and under the same terms, the result for `Cc1cc(NC(=O)Nc2ccc(Oc3ccnc4[nH]cc(Cl)c34)cc2F)n(-c2ccc(C#N)cc2)n1` [Ib-9, 1-(4-((3-chloro-1H-pyrrolo[2,3-b]pyridin-4-yl)oxy)-2-fluorophenyl)-3-(1-(4-cyanophenyl)-3-methyl-1H-pyrazol-5-yl)urea] reads above 1500 nM; that for `Cc1cc(NC(=O)Nc2ccc(Oc3ccnc4[nH]cc(Cl)c34)cc2F)n(-c2ccccc2)n1` [Ib-10, 1-(4-((3-chloro-1-pyrrolo[2,3-b]pyridin-4-yl)oxy)-2-fluorophenyl)-3-(3-methyl-1-phenyl-1H-pyrazol-5-yl)urea], above 1500 nM.
